Reference: PMC3870039 (ACS chemical biology, 2013)

Target: human topoisomerase IIα (Homo sapiens, UniProt P11388)
Assay: competition against DNA cleavage induced by […] 8-methyl-3′-
Assay type: biochemical

Sequence of human topoisomerase IIα (P11388 whole entry): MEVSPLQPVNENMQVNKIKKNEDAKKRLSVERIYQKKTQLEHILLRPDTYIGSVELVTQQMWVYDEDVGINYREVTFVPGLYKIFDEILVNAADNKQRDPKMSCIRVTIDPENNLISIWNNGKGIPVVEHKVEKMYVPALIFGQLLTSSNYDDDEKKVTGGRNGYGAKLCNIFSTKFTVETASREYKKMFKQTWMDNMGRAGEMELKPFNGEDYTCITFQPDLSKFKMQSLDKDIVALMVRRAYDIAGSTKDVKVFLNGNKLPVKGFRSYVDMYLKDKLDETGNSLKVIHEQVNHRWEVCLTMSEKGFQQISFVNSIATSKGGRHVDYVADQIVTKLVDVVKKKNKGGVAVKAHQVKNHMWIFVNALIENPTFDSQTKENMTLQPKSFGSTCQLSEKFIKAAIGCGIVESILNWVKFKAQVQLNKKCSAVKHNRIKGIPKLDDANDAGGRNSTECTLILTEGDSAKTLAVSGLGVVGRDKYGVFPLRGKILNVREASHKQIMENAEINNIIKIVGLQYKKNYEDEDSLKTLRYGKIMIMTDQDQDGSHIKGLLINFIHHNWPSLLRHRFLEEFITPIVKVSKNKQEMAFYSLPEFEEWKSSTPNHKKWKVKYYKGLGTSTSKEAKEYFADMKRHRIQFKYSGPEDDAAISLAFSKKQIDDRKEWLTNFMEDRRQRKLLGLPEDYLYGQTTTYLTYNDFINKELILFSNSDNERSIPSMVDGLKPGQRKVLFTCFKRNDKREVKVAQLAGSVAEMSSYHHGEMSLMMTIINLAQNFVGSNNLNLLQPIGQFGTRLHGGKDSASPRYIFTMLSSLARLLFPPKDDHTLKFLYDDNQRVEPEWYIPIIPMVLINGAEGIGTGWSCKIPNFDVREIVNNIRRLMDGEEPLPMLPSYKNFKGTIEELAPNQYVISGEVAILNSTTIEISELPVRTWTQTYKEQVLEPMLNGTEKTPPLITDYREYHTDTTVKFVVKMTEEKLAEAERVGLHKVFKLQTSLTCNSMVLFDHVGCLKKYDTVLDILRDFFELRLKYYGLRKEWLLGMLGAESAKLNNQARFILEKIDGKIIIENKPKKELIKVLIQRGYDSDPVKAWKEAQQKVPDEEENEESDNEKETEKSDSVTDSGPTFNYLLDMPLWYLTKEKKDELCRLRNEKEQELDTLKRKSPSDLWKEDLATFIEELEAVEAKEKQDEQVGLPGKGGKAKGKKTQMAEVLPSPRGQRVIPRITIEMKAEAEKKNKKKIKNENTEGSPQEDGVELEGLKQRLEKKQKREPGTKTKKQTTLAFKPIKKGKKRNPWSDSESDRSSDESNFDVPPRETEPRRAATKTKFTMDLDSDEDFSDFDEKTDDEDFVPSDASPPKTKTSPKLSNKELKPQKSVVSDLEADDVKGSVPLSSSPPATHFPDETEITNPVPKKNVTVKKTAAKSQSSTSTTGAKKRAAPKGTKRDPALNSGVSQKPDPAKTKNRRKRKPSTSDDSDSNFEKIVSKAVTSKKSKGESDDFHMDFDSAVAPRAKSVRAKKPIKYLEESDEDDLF

NCC1CCN(c2cc3c(cc2F)c(=O)c(C(=O)O)cn3C2CC2)C1 (stereo not shown) [8-H-3′-(AM)P-FQ]
IC50: ~50 µM
